We go through 15 compounds from ChEMBL document CHEMBL1146706, “New orally active PDE4 inhibitors with therapeutic potential” (Bioorg Med Chem Lett, 2004).

The target in experiment [1] is Phosphodiesterase 4 (Homo sapiens, UniProt P27815+Q08499+Q07343+Q08493). Description: Inhibition of phosphodiesterase 4 (PDE4) from U937 cells. It counts as cell-based. As to conditions: u-937.
For experiment [2], the system named is Rattus norvegicus. Nature of the experiment: Inhibition of lipopolysaccharide-induced tumor necrosis factor alpha production in rats at 3 mg/kg peroral dose (n=7). The format is functional. To be noted: route oral.
Experiment [3] concerns Rattus norvegicus. Nature of the experiment: Inhibition of lipopolysaccharide-induced tumor necrosis factor alpha production in rats at 10 mg/kg peroral dose (n=7). The format is functional. To be noted: route oral.
The subject of experiment [4] is Mustela putorius furo. Description: Emetic effect in fasted ferrets at 10 mg/kg peroral dose (n=3). To be noted: route oral. It counts as functional.
The test system of experiment [5] is Mustela putorius furo. Description: Emetic effect in fasted ferrets at 3 mg/kg peroral dose (n=2). It counts as functional. As to conditions: route oral.
Experiment [6] relates to Mustela putorius furo. Description: Emetic effect in fasted ferrets at 30 mg/kg peroral dose (n=2). As to conditions: route oral. The format is functional.
In experiment [7] the test system is Cavia porcellus. Nature of the experiment: In vivo inhibition of SRS-A mediated bronchoconstriction in guinea pig at 10 mg/kg peroral dose. The format is functional. As to conditions: Lung, route oral.
The species entered for experiment [8] is Homo sapiens. Description: Inhibition of TNF-alpha production in human whole blood. It counts as functional, organism-based.
The species named for experiment [9] is Rattus norvegicus. Nature of the experiment: Inhibition of gastric emptying in rats by peroral dose. As to conditions: Stomach, po, read-out: ID50 (the source's name). It counts as functional.
The subject of experiment [10] is Rattus norvegicus. Description: Inhibition of lipopolysaccharide-induced tumor necrosis factor alpha production in rats by peroral administration (n=7). It counts as functional. To be noted: po, read-out: ID50 (the source's name).
Experiment [11] deals with Cavia porcellus. Nature of the experiment: In vivo inhibition of slow reacting substance of anaphylaxis (SRS-A) mediated bronchoconstriction in guinea pig. The format is functional, organism-based. To be noted: Lung.
Experiment [12] deals with Rattus norvegicus. Description: Inhibition of lipopolysaccharide-induced tumor necrosis factor alpha production in rats by peroral administration. It counts as functional. As to conditions: po, read-out: ID50 (the source's name).
For experiment [13], the system named is Mustela putorius furo. Description: Emetic effect in fasted ferrets at 10 mg/kg peroral dose (n=2). It counts as functional. To be noted: route oral.
For experiment [14], the system named is Rattus norvegicus. Description: Inhibition of gastric emptying in rats […] peroral dose. The format is functional. To be noted: Stomach, route oral, read-out: ID50 (the source's name).

The structures appear in SMILES notation. pIC50: −log10 of the molar value.

As for `CC(=O)N1CC[C@H](Oc2cccc(Nc3c(C(N)=O)cnc4c3c(C)nn4C)c2)C1`, the IC50 – broadly, the concentration at which inhibition is half-maximal – in experiment [1] was greater than 0.3 µM.
In experiment [1], `Cc1nn(C)c2ncc(C(N)=O)c(Nc3cccc(C#N)c3)c12` displayed an IC50 of 0.085 µM. For the same compound, the inhibition in vivo (in general, the change of the read-out against control, counted positive when it falls) at 3 mg/kg in experiment [2] was found to be 2%.
In experiment [1], `Cc1nn(C)c2ncc(C(N)=O)c(Nc3ccccc3)c12` had an IC50 of 0.036 µM. This compound also registered an inhibition in vivo at 10 mg/kg in experiment [3] of 48%.
On to `COC(=O)N1CC[C@H](Oc2cccc(Nc3c(C(N)=O)cnc4c3c(C)nn4C)c2)C1`, for which the No. of ferrets in experiment [4] came out at 0; in [5], 0; in experiment [6] it was 2. In experiment [7], this compound registered an inhibition in vivo at 10 mg/kg of 45%. Besides, the pIC50 (usually the negative decadic logarithm of the IC50, by convention in mol/L) in experiment [8] was 5.32. The same compound came in with an IC50 in experiment [1] of 0.01 µM. In addition, the ED50 in experiment [9] amounted to 15 mg/kg; in experiment [10], 1 mg/kg.
As for `Cc1nn(C)c2ncc(C(N)=O)c(Nc3cccc(O[C@H]4CCNC4)c3)c12`, the IC50 in experiment [1] was greater than 0.3 µM.
Take `COc1ccccc1Nc1c(C(N)=O)cnc2c1c(C)nn2C`: the IC50 in experiment [1] was 0.076 µM. In experiment [3], this compound yielded an inhibition in vivo at 10 mg/kg of 68%.
`COc1ccc([C@]2(C#N)CC[C@@H](C(=O)O)CC2)cc1OC1CCCC1` [CILOMILAST] showed a pIC50 in experiment [11] of 5.35. For the same compound, the ED50 turned out to be 5.7 mg/kg in experiment [9] and 1.7 mg/kg in [12].
As to `Cc1nn(C)c2ncc(C(N)=O)c(Nc3cccc(O[C@H]4CCN(S(C)(=O)=O)C4)c3)c12`, the IC50 in experiment [1] stood at 0.25 µM.
On the same count and under the same terms, the value for `Cc1nn(C)c2ncc(C(N)=O)c(Nc3cccc(O[C@H]4CCN(C(=O)OC(C)(C)C)C4)c3)c12` was greater than 0.3 µM; that for `Cc1nn(C)c2ncc(C(N)=O)c(Nc3cccc(OC4CCCCC4)c3)c12` was greater than 0.1 µM; that for `COc1ccc(Nc2c(C(N)=O)cnc3c2c(C)nn3C)cc1` was greater than 0.1 µM.
For `Cc1nn(C)c2ncc(C(N)=O)c(Nc3cccc(O)c3)c12`, the IC50 in [1] turned out to be 0.097 µM. Further, testing at 10 mg/kg in experiment [3] gave an inhibition in vivo of 40%.
Consider `COc1cccc(Nc2c(C(N)=O)cnc3c2c(C)nn3C)c1`, for which the No. of ferrets in experiment [13] was determined as 0; in experiment [5] it was 0; in [6], 1. Also, the pIC50 in [11] is 5.17; in experiment [8], 5.52. Further, the IC50 in experiment [1] came out at 0.005 µM. In addition, the ED50 in experiment [14] worked out at 23 mg/kg; in [10], 2.4 mg/kg.
For `Cc1nn(C)c2ncc(C(N)=O)c(Nc3cccc(OC4CCC4)c3)c12`, in experiment [1], the IC50 was greater than 0.1 µM.
For the compound `Cc1nn(C)c2ncc(C(N)=O)c(Nc3cccc(OC4CCCC4)c3)c12`, in experiment [1], the IC50 was greater than 0.1 µM. The inhibition in vivo at 10 mg/kg in experiment [3] stood at 39%.
